Source: publication PMC2964429 (Biochemistry, 2010)

Assays:
[1] = molecular target: PgAgD (agmatine deiminase from P. gingivalis) (Porphyromonas gingivalis, UniProt Q7MXM8); assay: IC50 determination, agmatine deiminase discontinuous ureido; assay type: biochemical
[2] = molecular target: HpAgD (agmatine deiminase from Helicobacter pylori); conditions: read-out: IC50 HpAgD; previously reported; cited from earlier work
[3] = molecular target: SmAgD (agmatine deiminase from S. mutans) (Streptococcus mutans serotype c, UniProt Q8DW17); assay: IC50 determination, agmatine deiminase discontinuous ureido; assay type: biochemical
Sequence of SmAgD (agmatine deiminase from S. mutans) (Q8DW17 whole entry): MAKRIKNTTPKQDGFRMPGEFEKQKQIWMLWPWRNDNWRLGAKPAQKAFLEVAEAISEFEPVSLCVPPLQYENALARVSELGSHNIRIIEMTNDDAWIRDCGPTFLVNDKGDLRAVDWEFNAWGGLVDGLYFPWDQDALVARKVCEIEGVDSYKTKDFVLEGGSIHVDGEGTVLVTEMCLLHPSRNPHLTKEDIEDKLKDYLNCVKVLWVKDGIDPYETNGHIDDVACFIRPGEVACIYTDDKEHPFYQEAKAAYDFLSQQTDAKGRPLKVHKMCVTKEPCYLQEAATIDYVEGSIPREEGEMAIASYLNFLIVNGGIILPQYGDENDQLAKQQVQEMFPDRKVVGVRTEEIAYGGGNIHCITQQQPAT

[4] = tested on: Cys324; assay: chemical modification; conditions: 37 °C, 50 mM HEPES, free enzyme (kinact/KI)

Row | Molecule | IC50 [1] | IC50 [2] | IC50 [3] | pKa ([4]; 2-chloroacetamidine 0-60 mM) | pKa ([4]; iodoacetamide 0-20 mM)
1 | N=C(CCl)NCCCCN [ABCA, N-(4-aminobutyl)-2-chloro-ethanimidamide] | 15 ± 3 µM | 0.87 ± 0.03 µM | – | – | –
2 | N=C(CF)NCCCCN [ABFA, N-(4-aminobutyl)-2-fluoro-ethanimidamide] | 91 ± 25 µM | 6.8 ± 0.26 µM | 0.27 ± 0.1 µM | – | –
3 | Agmatine deiminase (HpAgD) (Helicobacter pylori) | – | – | – | 9.8 ± 0.1 | 9.2 ± 0.3
